Experiments:
[1] = system: A-375; experiment: Growth inhibition of human A375 cells at 10 uM after 72 hrs by MTT assay; assay type: functional; conditions: A-375, 72 h, read-out: GI
[2] = system: A-375; experiment: Cytotoxicity against human A375 cells assessed as reduction in cell viability after 72 hrs by MTT assay; assay type: functional, cell-based; conditions: A-375, 72 h
[3] = system: HepG2; experiment: Growth inhibition of human HepG2 cells at 10 uM after 72 hrs by MTT assay; assay type: functional; conditions: HepG2, 72 h, read-out: GI
[4] = system: MCF7; experiment: Growth inhibition of human MCF7 cells at 10 uM after 72 hrs by MTT assay; assay type: functional; conditions: MCF7, 72 h, read-out: GI
[5] = system: A-375; experiment: Antitumor activity against human A375 cells xenografted in nude Ncr mouse assessed as reduction in tumor growth at 50 mg/kg, ig dosed once daily for 23 days; assay type: functional; conditions: A-375, po, 552 h, route intragastric, read-out: TGI
[6] = system: MDA-MB-453; experiment: Cytotoxicity against human MDA-MB-453 cells assessed as reduction in cell viability after 72 hrs by MTT assay; assay type: functional, cell-based; conditions: MDA-MB-453, 72 h
[7] = target: Vascular endothelial growth factor receptor 2 (Homo sapiens, UniProt P35968); experiment: Inhibition of human recombinant VEGFR2 incubated for 1 hr using [gamma-32P]ATP by top count assay
[8] = system: SW480; experiment: Growth inhibition of human SW480 cells at 10 uM after 72 hrs by MTT assay; assay type: functional; conditions: SW480, 72 h, read-out: GI
[9] = system: MCF7; experiment: Cytotoxicity against human MCF7 cells assessed as reduction in cell viability after 72 hrs by MTT assay; assay type: functional, cell-based; conditions: MCF7, 72 h
[10] = system: NCI-H522; experiment: Growth inhibition of human NCI-H522 cells at 10 uM after 72 hrs by MTT assay; assay type: functional; conditions: NCI-H522, 72 h, read-out: GI
[11] = system: Mus musculus; experiment: Toxicity in human A375 cells xenografted nude Ncr mouse assessed as body weight changes at 50 mg/kg, ig dosed once daily for 23 days; assay type: organism-based, A-375; set-up: dose 50 mg/kg, route intragastric; conditions: in vivo, po, 552 h
[12] = target: Serine/threonine-protein kinase B-raf (Homo sapiens, UniProt P15056); experiment: Inhibition of BRAF (unknown origin) incubated for 15 mins by fluorescence based assay
[13] = system: HepG2; experiment: Cytotoxicity against human HepG2 cells assessed as reduction in cell viability after 72 hrs by MTT assay; assay type: functional, cell-based; conditions: HepG2, 72 h
[14] = system: Mus musculus; experiment: Toxicity in human A375 cells xenografted nude Ncr mouse assessed as induction of adverse events at 50 mg/kg, ig dosed once daily for 23 days; assay type: organism-based, A-375; set-up: dose 50 mg/kg, route intragastric; conditions: in vivo, po, 552 h
[15] = system: MDA-MB-453; experiment: Growth inhibition of human MDA-MB-453 cells at 10 uM after 72 hrs by MTT assay; assay type: functional; conditions: MDA-MB-453, 72 h, read-out: GI
[16] = system: SW480; experiment: Cytotoxicity against human SW480 cells assessed as reduction in cell viability after 72 hrs by MTT assay; assay type: functional, cell-based; conditions: SW480, 72 h
[17] = system: NCI-H522; experiment: Cytotoxicity against human NCI-H522 cells assessed as reduction in cell viability after 72 hrs by MTT assay; assay type: functional, cell-based; conditions: NCI-H522, 72 h

Serine/threonine-protein kinase B-raf, sequence (P15056 whole entry): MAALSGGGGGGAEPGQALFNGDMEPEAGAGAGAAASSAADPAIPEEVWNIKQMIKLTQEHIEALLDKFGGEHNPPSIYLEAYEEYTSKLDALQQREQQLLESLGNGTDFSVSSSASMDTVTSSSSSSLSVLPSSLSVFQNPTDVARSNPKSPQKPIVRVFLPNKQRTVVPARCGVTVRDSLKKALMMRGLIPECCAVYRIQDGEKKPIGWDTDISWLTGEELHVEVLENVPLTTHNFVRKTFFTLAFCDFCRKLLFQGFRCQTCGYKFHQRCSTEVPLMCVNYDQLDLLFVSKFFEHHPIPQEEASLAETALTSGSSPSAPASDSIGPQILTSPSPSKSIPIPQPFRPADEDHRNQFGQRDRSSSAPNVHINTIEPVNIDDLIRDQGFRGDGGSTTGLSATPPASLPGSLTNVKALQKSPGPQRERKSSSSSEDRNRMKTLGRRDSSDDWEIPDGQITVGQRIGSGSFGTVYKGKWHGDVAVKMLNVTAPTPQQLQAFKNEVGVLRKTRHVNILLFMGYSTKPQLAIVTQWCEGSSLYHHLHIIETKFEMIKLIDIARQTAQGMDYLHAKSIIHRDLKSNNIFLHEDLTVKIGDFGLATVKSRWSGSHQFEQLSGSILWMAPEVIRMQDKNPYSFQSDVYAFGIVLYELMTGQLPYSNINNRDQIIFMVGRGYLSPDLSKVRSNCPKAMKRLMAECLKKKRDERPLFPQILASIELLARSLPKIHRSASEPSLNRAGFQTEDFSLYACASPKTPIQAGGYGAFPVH
Vascular endothelial growth factor receptor 2, sequence (P35968 whole entry): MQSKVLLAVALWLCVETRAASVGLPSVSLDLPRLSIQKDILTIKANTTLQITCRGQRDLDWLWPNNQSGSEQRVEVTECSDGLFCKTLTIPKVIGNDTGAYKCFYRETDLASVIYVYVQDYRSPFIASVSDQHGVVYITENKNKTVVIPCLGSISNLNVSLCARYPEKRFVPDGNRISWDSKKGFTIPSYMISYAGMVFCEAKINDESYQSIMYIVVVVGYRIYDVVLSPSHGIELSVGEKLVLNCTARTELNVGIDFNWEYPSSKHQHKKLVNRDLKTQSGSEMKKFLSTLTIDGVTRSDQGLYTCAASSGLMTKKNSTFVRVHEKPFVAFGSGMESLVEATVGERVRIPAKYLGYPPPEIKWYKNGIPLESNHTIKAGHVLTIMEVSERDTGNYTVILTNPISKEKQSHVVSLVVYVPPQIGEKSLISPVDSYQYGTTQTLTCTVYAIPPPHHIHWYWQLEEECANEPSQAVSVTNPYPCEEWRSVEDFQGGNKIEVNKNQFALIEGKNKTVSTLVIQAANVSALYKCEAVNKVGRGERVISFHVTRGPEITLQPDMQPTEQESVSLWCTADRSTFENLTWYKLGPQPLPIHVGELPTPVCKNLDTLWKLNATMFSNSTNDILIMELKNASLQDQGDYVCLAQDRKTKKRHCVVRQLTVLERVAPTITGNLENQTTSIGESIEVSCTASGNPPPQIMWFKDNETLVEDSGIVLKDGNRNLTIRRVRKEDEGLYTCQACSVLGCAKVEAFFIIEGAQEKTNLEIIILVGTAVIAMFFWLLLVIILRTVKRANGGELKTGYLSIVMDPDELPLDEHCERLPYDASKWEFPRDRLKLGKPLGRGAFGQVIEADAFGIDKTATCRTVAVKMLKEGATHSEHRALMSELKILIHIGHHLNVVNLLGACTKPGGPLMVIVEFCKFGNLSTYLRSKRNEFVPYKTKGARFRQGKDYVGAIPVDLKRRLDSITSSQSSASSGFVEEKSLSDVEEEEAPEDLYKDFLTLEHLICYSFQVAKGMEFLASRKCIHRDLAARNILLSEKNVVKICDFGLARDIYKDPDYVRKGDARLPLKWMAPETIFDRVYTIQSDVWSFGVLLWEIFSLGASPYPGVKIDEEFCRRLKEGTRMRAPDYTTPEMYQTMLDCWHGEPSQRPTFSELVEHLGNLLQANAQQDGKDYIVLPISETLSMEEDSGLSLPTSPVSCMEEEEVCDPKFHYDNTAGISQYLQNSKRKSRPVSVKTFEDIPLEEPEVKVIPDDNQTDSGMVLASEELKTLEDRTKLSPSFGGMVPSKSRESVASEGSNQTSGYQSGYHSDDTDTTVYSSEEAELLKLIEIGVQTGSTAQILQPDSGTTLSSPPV

| Compound | inhibition of growth at 10 µM [1] | IC50 [2] | inhibition of growth at 10 µM [3] | inhibition of growth at 10 µM [4] | inhibition in vivo at 50 mg/kg [5] | IC50 [6] | IC50 [7] | inhibition of growth at 10 µM [8] | IC50 [9] | inhibition of growth at 10 µM [10] | Activity [11] | IC50 [12] | IC50 [13] | Activity [14] | inhibition of growth at 10 µM [15] | IC50 [16] | IC50 [17] |
| --- | --- | --- | --- | --- | --- | --- | --- | --- | --- | --- | --- | --- | --- | --- | --- | --- | --- |
| O=C(Nc1ccc(Cl)c(C(=O)Nc2ccc(-c3ncc[nH]3)nc2)c1)c1ccc(Cl)c(C(F)(F)F)c1 | 62.6% | 4.26 µM | 54.2% | 41.5% | 35.7% | 8.35 µM | 18.6 µM | 38.8% | 15.3 µM | -3.2% | Non-toxic | 0.65 µM | 13.8 µM | Non-toxic | 49.3% |  |  |
| Cc1cc(C(=O)Nc2ccc(Cl)c(C(=O)Nc3ccc(-c4ncc[nH]4)nc3)c2)ccc1Cl | 43.9% | 12.6 µM | 52.8% | 43.7% |  | 8.76 µM |  | 65.7% | 16.3 µM | 66.7% |  |  | 11.5 µM |  | 51.1% | 3.57 µM | 2.09 µM |
| O=C(Nc1ccc(Cl)c(C(F)(F)F)c1)c1ccc(Cl)c(C(=O)Nc2ccc(-c3ncc[nH]3)nc2)c1 | 64.4% | 2.93 µM | 63.4% | 31.3% | 42.5% | 7.96 µM | 23.4 µM | 33.4% |  | 0.2% | Non-toxic | 0.531 µM | 3.21 µM | Non-toxic | 52.9% |  |  |

Source: ChEMBL document CHEMBL3392978 (Eur J Med Chem, 2015)
